In patent US11248013B2, “Tricyclic inhibitors of poly(ADP-ribose)polymerase” (Rakovina Therapeutics Inc., priority 2011, dated 2022):
pIC50: −log10 of the molar value.

Molecular target: PARP-1 (Homo sapiens (Human), UniProt P09874)
Assay: PARP-1 Enzyme Assay (HT Universal Colorimetric PARP Assay Kit)
Format: biochemical
Conditions: OD450, read-out: IC50 (PARP-1 inhibition)
Experimental: Inhibition of PARP-1 enzymatic activities was measured using an HT Universal Colorimetric PARP Assay Kit (Trevigen, catalogue #4677-096-K) following the standard procedures.
Serial dilutions of PARP compounds were added to appropriate wells. The compound was incubated with PARP enzyme at RT for 10 min, and the reaction was initiated by addition of the PARP substrate cocktail, Each concentration of compound was tested in triplicate wells. After 15 min reaction, the reaction was stopped, and the Strep-HRP was added into each well and incubated for 1 h at RT. After addition of TACS-Sapphire™ colorimetric substrate and incubated in dark for 15 min, the OD450 was read out with an EnVision instrument. IC50 values (the concentration at which 50% of the enzyme activity is inhibited) were calculated, which are determined over a range of different concentrations, normally from 10 μM to 0.1 nM.

PARP-1, sequence (P09874 whole entry): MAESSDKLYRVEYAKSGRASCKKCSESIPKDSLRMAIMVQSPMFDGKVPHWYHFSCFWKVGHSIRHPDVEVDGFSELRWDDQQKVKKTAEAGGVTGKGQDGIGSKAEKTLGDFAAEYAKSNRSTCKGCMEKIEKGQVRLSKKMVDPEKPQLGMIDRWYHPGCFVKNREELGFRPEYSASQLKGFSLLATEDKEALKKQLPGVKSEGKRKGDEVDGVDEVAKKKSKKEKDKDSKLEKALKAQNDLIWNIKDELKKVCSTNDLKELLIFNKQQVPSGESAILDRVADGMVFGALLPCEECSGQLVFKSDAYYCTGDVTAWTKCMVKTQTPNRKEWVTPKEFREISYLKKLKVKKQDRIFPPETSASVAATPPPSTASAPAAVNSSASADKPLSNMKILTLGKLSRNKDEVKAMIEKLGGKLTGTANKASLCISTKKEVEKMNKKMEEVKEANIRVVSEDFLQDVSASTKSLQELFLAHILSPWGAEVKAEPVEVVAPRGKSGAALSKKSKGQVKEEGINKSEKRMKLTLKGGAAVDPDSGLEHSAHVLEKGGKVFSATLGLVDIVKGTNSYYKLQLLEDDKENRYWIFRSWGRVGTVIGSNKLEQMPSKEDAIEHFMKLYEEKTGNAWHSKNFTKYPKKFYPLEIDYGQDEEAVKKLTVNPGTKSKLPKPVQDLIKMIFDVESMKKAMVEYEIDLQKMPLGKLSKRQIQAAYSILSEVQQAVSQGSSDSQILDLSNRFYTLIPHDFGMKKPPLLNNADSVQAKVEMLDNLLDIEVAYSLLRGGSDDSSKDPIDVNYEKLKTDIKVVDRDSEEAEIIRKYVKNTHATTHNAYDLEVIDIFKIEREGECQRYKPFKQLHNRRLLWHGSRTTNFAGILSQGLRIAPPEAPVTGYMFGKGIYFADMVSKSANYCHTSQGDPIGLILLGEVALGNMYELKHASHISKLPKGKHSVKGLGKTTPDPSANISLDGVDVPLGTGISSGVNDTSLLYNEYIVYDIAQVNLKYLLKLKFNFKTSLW

| Molecule | pIC50 |
| --- | --- |
| 4-(3-(1-(3,3-difluoropyrrolidine-1-carbonyl)-4-oxido-1,4-azaphosphinan-4-yl)-4-fluorobenzyl)phthalazin-1(2H)-one [Example 6] | > 7.00 |
| 4-(3-(1-(3,3-dimethylbutanoyl)-4-oxido-1,4-azaphosphinan-4-yl)-4-fluorobenzyl)phthalazin-1(2H)-one [Example 5] | > 7.00 |
| 4-(3-(1-(3-chloro-5-(trifluoromethyl)pyridin-2-yl)-4-oxido-1,4-azapbosphinan-4-yl)-4-fluorobenzyl)phthalazin-1(2H)-one [Example 20] | 6.00 to 7.00 |
| 4-(3-(1-(cyclobutanecarbonyl)-4-oxido-1,4-azaphosphinan-4-yl)-4-fluorobenzyl)phthalazin-1(2H)-one [Example 4] | > 7.00 |
| 4-(3-(1-(cyclopropanecarbonyl)-4-oxido-1,4-azaphosphinan-4-yl)-4-fluorobenzyl)phthalazin-1(2H)-one [Example 3] | > 7.00 |
| 4-(4-fluoro-3-(4-oxido-1-(tetrahydrofuran-2-carbonyl)-1,4-azaphosphinan-4-yl)benzyl)phthalazin-1(2H)-one [Example 7] | 6.00 to 7.00 |
| 4-(4-fluoro-3-(4-oxido-1-pivaloyl-1,4-azaphosphinan-4-yl)benzyl)phthalazin-1(2H)-one [Example 8] | > 7.00 |
| O=c1[nH]nc(C(O)c2ccc(F)c(P3(=O)CCN(C4CC4)CC3)c2)c2ccccc12 (racemic) [Example 58, (±)-4-[(3-(1-cyclopropyl-4-oxido-1,4-azaphosphinan-4-yl)-4-fluoro-1-phenyl)(hydroxymethyl)]phthalazin-1(2H)-one] | > 7.00 |
| O=c1[nH]nc(Cc2ccc(F)c(P3(=O)CCN(Cc4ccccc4)CC3)c2)c2ccccc12 [Example 1, 4-(3-(1-benzyl-4-oxido-1,4-azaphosphinan-4-yl)-4-fluorobenzyl)phthalazin-1(2H)-one] | > 7.00 |
| O=C(C1CCCC1)N1CCP(=O)(c2cc(Cc3n[nH]c(=O)c4ccccc34)ccc2F)CC1 [Example 2, 4-(3-(1-(cyclopentanecarbonyl)-4-oxido-1,4-azaphosphinan-4-yl)-4-fluorobenzyl)phthalazin-1 (2H)-one] | 5.00 to 6.00 |
| CN(C)C(=O)N1CCP(=O)(c2cc(Cc3n[nH]c(=O)c4ccccc34)ccc2F)CC1 [Example 9, 4-(2-fluoro-5-((4-oxo-3,4-dihydrophthalazin-1-yl)methyl)phenyl)-N,N-dimethyl-1,4-azaphosphinane-1-carboxamide 4-oxide] | 6.00 to 7.00 |
| O=C(N1CCCC1)N1CCP(=O)(c2cc(Cc3n[nH]c(=O)c4ccccc34)ccc2F)CC1 [Example 10] | 6.00 to 7.00 |
| O=c1[nH]nc(Cc2ccc(F)c(P3(=O)CCN(c4ccc(Cl)nn4)CC3)c2)c2ccccc12 [Example 13, 4-(3-(1-(6-chloropyridazin-3-yl)-4-oxido-1,4-azaphosphinan-4-yl)-4-fluorobenzyl)phthalazin-1(2H)-one] | > 7.00 |
| N#Cc1ccc(N2CCP(=O)(c3cc(Cc4n[nH]c(=O)c5ccccc45)ccc3F)CC2)nc1 [Example 14, 6-(4-(2-fluoro-5-((4-oxo-3,4-dihydrophthalazin-1-yl)methyl)phenyl)-4-oxido-1,4-azaphosphinan-1-yl)nicotinonitrile] | > 7.00 |
| N#Cc1ccc(N2CCP(=O)(c3cc(Cc4n[nH]c(=O)c5ccccc45)ccc3F)CC2)cc1 [Example 15, 4-(4-(2-fluoro-5-((4-oxo-3,4-dihydrophthalazin-1-yl)methyl)phenyl)-4-oxido-1,4-azaphosphinan-1-yl)benzonitrile] | 5.00 to 6.00 |
| N#Cc1cccnc1N1CCP(=O)(c2cc(Cc3n[nH]c(=O)c4ccccc34)ccc2F)CC1 [Example 16, 2-(4-(2-fluoro-5-((4-oxo-3,4-dihydrophthalazin-1-yl)methyl)phenyl)-4-oxido-1,4-azaphosphinan-1-yl)nicotinonitrile] | > 7.00 |
| O=c1[nH]nc(Cc2ccc(F)c(P3(=O)CCN(c4ccnc(Cl)n4)CC3)c2)c2ccccc12 [Example 17, 4-(3-(1-(2-chloropyrimidin-4-yl)-4-oxido-1,4-azaphosphinan-4-yl)-4-fluorobenzyl)phthalazin-1(2H)-one] | > 7.00 |
| O=c1[nH]nc(Cc2ccc(F)c(P3(=O)CCN(c4nccc(Cl)n4)CC3)c2)c2ccccc12 [Example 18, 4-(3-(1-(4-chloropyrimidin-2-yl)-4-oxido-1,4-azaphosphinan-4-yl)-4-fluorobenzyl)phthalazin-1(2H)-one] | > 7.00 |

| Molecule | pIC50 |
| --- | --- |
| O=c1[nH]nc(Cc2ccc(F)c(P3(=O)CCN(c4ccccn4)CC3)c2)c2ccccc12 [Example 19, 4-(4-fluoro-3-(4-oxido-1-(pyridin-2-yl)-1,4-azaphosphinan-4-yl)benzyl)phthalazin-1(2H)-one] | > 7.00 |
| O=c1[nH]nc(Cc2ccc(F)c(P3(=O)CCN(c4ncnc5ccccc45)CC3)c2)c2ccccc12 [Example 21, 4-(4-fluoro-3-(4-oxido-1-(quinazolin-4-yl)-1,4-azaphosphinan-4-yl)benzyl)phthalazin-1(2H)-one] | > 7.00 |
| O=c1[nH]nc(Cc2ccc(F)c(P3(=O)CCN(c4cc(Cl)ncn4)CC3)c2)c2ccccc12 [Example 22, 4-(3-(1-(6-chloropyrimidin-4-yl)-4-oxido-1,4-azaphosphinan-4-yl)-4-fluorobenzyl)phthalazin-1(2H)-one] | > 7.00 |
| O=c1[nH]nc(Cc2ccc(F)c(P3(=O)CCN(c4ncccc4F)CC3)c2)c2ccccc12 [Example 23, 4-(4-fluoro-3-(1-(3-fluoropyridin-2-yl)-4-oxido-1,4-azaphosphinan-4-yl)benzyl)phthalazin-1(2H)-one] | > 7.00 |
| O=c1[nH]nc(Cc2ccc(F)c(P3(=O)CCN(c4ccc(C(F)(F)F)cn4)CC3)c2)c2ccccc12 [Example 24, 4-(4-fluoro-3-(4-oxido-1-(5-(trifluoromethyl)pyridin-2-yl)-1,4-azaphosphinan-4-yl)benzyl)phthalazin-1(2H)-one] | > 7.00 |
| O=c1[nH]nc(Cc2ccc(F)c(P3(=O)CCN(c4cccc(F)n4)CC3)c2)c2ccccc12 [Example 25, 4-(4-fluoro-3-(1-(6-fluoropyridin-2-yl)-4-oxido-1,4-azaphosphinan-4-yl)benzyl)phthalazin-1(2H)-one] | > 7.00 |
| O=c1[nH]nc(Cc2ccc(F)c(P3(=O)CCN(c4cc(C(F)(F)F)ccn4)CC3)c2)c2ccccc12 [Example 26, 4-(4-fluoro-3-(4-oxido-1-(4-(trifluoromethyl)pyridin-2-yl)-1,4-azaphosphinan-4-yl)benzyl)phthalazin-1(2H)-one] | > 7.00 |
| O=c1[nH]nc(Cc2ccc(F)c(P3(=O)CCN(c4ncccc4C(F)(F)F)CC3)c2)c2ccccc12 [Example 27, 4-(4-fluoro-3-(4-oxido-1-(3-(trifluoromethyl)pyridin-2-yl)-1,4-azaphosphinan-4-yl)benzyl)phthalazin-1(2H)-one] | 6.00 to 7.00 |
| O=c1[nH]nc(Cc2ccc(F)c(P3(=O)CCN(c4ncc(F)cc4F)CC3)c2)c2ccccc12 [Example 28, 4-(4-fluoro-3-(1-(3,5-difluoropyridin-2-yl)-4-oxido-1,4-azaphosphinan-4-yl)benzyl)phthalazin-1(2H)-one] | > 7.00 |
| O=c1[nH]nc(Cc2ccc(F)c(P3(=O)CCN(c4ncc5ccccc5n4)CC3)c2)c2ccccc12 [Example 30, 4-(4-fluoro-3-(4-oxido-1-(quinazolin-2-yl)-1,4-azaphosphinan-4-yl)benzyl)phthalazin-1(2H)-one] | > 7.00 |
| O=c1[nH]nc(Cc2ccc(F)c(P3(=O)CCN(c4cccc(C(F)(F)F)n4)CC3)c2)c2ccccc12 [Example 31, 4-(4-fluoro-3-(4-oxido-1-(6-(trifluoromethyl)pyridin-2-yl)-1,4-azaphosphinan-4-yl)benzyl)phthalazin-1(2H)-one] | 6.00 to 7.00 |
| CC(=O)c1cccnc1N1CCP(=O)(c2cc(Cc3n[nH]c(=O)c4ccccc34)ccc2F)CC1 [Example 34, 4-(4-fluoro-3-(4-oxido-1-(3-(acetyl)pyridin-2-yl)-1,4-azaphosphinan-4-yl)benzyl)phthalazin-1(2H)-one] | > 7.00 |
| O=c1[nH]nc(Cc2ccc(F)c(P3(=O)CCN(c4ncc(Cl)cn4)CC3)c2)c2ccccc12 [Example 36, 4-(4-fluoro-3-(4-oxido-1-(5-(chloro)pyrimidin-2-yl)-1,4-azaphosphinan-4-yl)benzyl)phthalazin-1(2H)-one] | > 7.00 |
| CCCc1cnc(N2CCP(=O)(c3cc(Cc4n[nH]c(=O)c5ccccc45)ccc3F)CC2)nc1 [Example 37, 4-(4-fluoro-3-(4-oxido-1-(5-(n-propyl)pyrimidin-2-yl)-1,4-azaphosphinan-4-yl)benzyl)phthalazin-1(2H)-one] | 6.00 to 7.00 |
| O=c1[nH]nc(Cc2ccc(F)c(P3(=O)CCN(C4CC4)CC3)c2)c2ccccc12 [Example 38, 4-(3-(1-cyclopropyl-4-oxido-1,4-azaphosphinan-4-yl)-4-fluorobenzyl)phthalazin-1(2H)-one] | > 7.00 |
| O=c1[nH]nc(Cc2ccc(F)c(P3(=O)CCN(C4CCC4)CC3)c2)c2ccccc12 [Example 39, 4-(3-(1-cyclobutyl-4-oxido-1,4-azaphosphinan-4-yl)-4-fluorobenzyl)phthalazin-1(2H)-one] | > 7.00 |
| CN1CCP(=O)(c2cc(Cc3n[nH]c(=O)c4ccccc34)ccc2F)CC1 [Example 40, 4-(4-fluoro-3-(1-methyl-4-oxido-1,4-azaphosphinan-4-yl)benzyl)phthalazin-1(2H)-one] | 6.00 to 7.00 |
| CCN1CCP(=O)(c2cc(Cc3n[nH]c(=O)c4ccccc34)ccc2F)CC1 [Example 41, 4-(3-(1-ethyl-4-oxido-1,4-azaphosphinan-4-yl)-4-fluorobenzyl)phthalazin-1(2H)-one] | > 7.00 |
